Test results taken from patent US20260337208A1, “HETEROCYCLIC DERIVATIVES AS JANUS KINASE INHIBITORS” (CHIESI FARMACEUTICI S.P.A., priority 2022, published 2026).

How the values were obtained:
[1] = test system: pSTAT6 in BEAS-2B human cell line; assay: Inhibition of IL-13 induced pSTAT6 in BEAS; assay type: cell-based; conditions: for IC50: Homo sapiens, BEAS-2B, 0.5 h, IL-13 trigger, 30 min, parent compound; for Fold difference parent vs predicted acid metabolite: ratio=IC50 predicted acid metabolite/IC50 ester
Experimental: BEAS-2B human cell line was seeded (100.000 cells/well) and incubated for 48 h at 37° C., 5% CO2, 95% humidity. Compounds were added and incubated 30 min followed by IL-13 as trigger. After 30 min incubation, cells were lysed and pSTAT6 determined by Fastscan phospho-stat6 (Tyr641) sandwich ELISA kit (cell signaling). Inhibitors were tested at 11 consecutive 5-fold dilutions starting from 10 μM (10 μM-[…]) in duplicate. Calculation of IC50 data, curves and QC analysis were made using Excel tools and GraphPadPrism software. QC criteria parameters: Z′≥0.35, Hill Slope range 0.5 to 5, S:B>2.

JAK1 = JAK1 (Homo sapiens, UniProt P23458); assay: Biochemical potency on JAK1, TR-FRET (LANCE Ultra kinase assay); conditions: ATP corresponding to Km; cell-free; read-out: JAK1 inhibitory activity (pIC50) (converted)
Sequence of JAK1 (P23458 whole entry, canonical isoform): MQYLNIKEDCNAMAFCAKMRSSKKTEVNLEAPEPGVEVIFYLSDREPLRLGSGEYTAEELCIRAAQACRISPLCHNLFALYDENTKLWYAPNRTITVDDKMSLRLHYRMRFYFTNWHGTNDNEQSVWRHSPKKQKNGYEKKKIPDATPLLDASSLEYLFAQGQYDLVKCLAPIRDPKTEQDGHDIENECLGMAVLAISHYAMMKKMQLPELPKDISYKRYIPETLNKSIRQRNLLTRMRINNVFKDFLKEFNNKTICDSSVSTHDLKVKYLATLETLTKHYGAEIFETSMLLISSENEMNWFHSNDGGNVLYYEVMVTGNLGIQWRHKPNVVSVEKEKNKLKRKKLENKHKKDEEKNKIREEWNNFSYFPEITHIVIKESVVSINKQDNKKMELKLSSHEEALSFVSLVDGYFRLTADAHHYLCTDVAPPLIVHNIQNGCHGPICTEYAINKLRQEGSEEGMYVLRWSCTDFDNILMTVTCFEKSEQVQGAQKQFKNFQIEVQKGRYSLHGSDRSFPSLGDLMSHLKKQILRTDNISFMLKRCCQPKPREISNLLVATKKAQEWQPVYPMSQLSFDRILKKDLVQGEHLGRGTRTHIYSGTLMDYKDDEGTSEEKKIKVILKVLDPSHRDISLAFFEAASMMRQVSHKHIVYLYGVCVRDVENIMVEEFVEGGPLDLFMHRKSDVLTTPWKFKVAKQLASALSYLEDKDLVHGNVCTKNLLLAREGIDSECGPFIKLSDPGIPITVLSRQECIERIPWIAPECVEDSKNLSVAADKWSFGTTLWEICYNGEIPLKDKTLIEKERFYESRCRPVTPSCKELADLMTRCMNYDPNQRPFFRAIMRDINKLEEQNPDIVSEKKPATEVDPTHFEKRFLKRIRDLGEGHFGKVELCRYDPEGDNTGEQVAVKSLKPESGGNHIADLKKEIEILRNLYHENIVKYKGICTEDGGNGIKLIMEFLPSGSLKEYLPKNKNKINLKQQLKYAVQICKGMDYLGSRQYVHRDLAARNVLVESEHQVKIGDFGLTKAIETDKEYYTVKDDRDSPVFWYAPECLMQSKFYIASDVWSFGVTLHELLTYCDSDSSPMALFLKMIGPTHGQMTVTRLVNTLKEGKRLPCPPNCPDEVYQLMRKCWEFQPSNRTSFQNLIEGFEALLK
Experimental: (§1) The objective of this study was to assess the capability of compounds to inhibit all 4 JAK isoforms activity in a cell-free environment. Assay for JAK 1, JAK 2, JAK 3 and TYK2 were performed by Time-resolved fluorescence resonance energy transfer (TR-FRET) technology. It consists in the interaction of two labelled binding partners detected by the energy transfer from an excited donor to an acceptor dye and measurement of light emission by the acceptor dye. LANCE Ultra kinase assay was used. In presence of JAK 1, JAK 2, JAK 3 and TYK2 kinases and ATP (corresponding to Km), the ULight peptide substrate (LANCE Ulight-JAK-1 (Tyr1023) Peptide, Perkin Elmer, TRF0121) is phosphorylated. It is then captured by Eu-anti-phospho-substrate antibody (LANCE Eu-W1024 Anti-phosphotyrosine (PT66), Perkin Elmer, AD0069), which bring the Eu-chelate donor and ULight acceptor dyes into close proximity. Upon excitation at 320 nm, the Eu-chelate transfers its energy to the ULight dye, resulting in a fluorescent light emission at 665 nm.
(§2) Serial dilutions of compounds in pure DMSO are prepared from 10 mM DMSO stock solutions. Compounds were tested in 384-well plate for 11 consecutive 5-fold dilutions starting from 20 μM highest concentration (20 μM-[…]). 200 nL of compound were transferred from mother plate to test plate by using Mosquito (TTP labtech). Assay was performed in 384-well Perkin Elmer test plate in 20 μL assay volume (kinase reaction) and 40 μL total volume (stopping reagent and antibody detection reagents). In 10 μL of substrate solution (peptide+ATP) 30/50/20/10 nM of peptide and 20/0.7/0.2/12 μM of ATP were added for JAK 1, JAK 2, JAK 3 and TYK2 respectively. 10 μL of enzyme solution was added to kinase reaction at these concentrations: 0.15/0.083/0.025/0.144 ng/μL of JAK 1, JAK 2, JAK 3 and TYK2 respectively. After shaking and 1.5 h of incubation at r.t., 20 μL of Stop (10 μL EDTA) and Detection mixture (10 μL Europium-anti-phospho antibody, final: 0.5 nM) were added. Reading was performed after 1 h of incubation on a En Vision 2104 reader (Perkin Elmer).
(§3) Calculation of IC50 data, curves and QC analysis was performed by using Excel tool and GraphPadPrism software, v9. Briefly, individual concentration-effect curves are generated by plotting the logarithm of the tested concentration of tested compounds (X) vs. corresponding percent inhibition values (Y) using least squares (ordinary) fit. Best fit IC50 values are calculated using Log (inhibitor) vs. normalized response—Variable slope equation, where Y=100/(1+10^((LogIC50−X)*HillSlope)). QC criteria parameters (Z′, S:B, R2, HillSlope) were checked for every IC50 curve. Calculation of IC50 data, curves and QC analysis were made using Excel tools and GraphPadPrism software. QC criteria parameters: Z′≥0.5, Hill Slope range 0.5 to 5, S:B>2.

JAK2 = JAK2 (Homo sapiens, UniProt O60674); assay: Biochemical potency on JAK2, TR-FRET (LANCE Ultra kinase assay); conditions: ATP corresponding to Km; cell-free; read-out: JAK2 inhibitory activity (pIC50) (converted)
Sequence of JAK2 (O60674 whole entry): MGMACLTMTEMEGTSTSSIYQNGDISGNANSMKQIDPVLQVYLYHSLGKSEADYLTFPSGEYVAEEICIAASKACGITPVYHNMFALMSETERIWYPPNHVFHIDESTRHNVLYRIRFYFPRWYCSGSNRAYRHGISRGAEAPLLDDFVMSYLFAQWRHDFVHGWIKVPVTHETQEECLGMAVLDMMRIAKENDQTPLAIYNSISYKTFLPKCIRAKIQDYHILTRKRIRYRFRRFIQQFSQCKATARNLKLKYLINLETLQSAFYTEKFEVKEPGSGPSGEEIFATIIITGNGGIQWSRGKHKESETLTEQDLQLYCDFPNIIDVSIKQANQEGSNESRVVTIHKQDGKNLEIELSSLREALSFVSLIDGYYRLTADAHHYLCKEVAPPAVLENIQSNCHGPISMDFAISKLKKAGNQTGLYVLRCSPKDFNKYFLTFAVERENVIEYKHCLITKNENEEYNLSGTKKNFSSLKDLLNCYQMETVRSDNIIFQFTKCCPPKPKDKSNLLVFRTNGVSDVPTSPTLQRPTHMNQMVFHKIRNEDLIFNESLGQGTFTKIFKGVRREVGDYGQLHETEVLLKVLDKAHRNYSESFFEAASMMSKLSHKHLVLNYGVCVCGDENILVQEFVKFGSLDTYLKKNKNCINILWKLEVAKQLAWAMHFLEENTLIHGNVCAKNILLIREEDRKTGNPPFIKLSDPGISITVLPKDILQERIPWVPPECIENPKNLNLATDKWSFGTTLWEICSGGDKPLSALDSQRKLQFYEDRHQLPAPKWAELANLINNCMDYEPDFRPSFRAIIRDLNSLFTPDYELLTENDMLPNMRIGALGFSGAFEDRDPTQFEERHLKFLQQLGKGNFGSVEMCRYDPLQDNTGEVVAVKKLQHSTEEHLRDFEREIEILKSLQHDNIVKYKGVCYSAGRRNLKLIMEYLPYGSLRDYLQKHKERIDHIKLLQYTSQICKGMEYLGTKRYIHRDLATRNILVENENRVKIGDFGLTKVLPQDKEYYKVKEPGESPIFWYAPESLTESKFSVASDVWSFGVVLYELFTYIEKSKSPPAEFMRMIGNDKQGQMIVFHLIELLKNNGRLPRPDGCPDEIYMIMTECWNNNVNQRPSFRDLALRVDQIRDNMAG
Experimental: as §1, §2, §3

TYK2 = TYK2 (Homo sapiens, UniProt P29597); assay: Biochemical potency on Tyk2, TR-FRET (LANCE Ultra kinase assay); conditions: ATP corresponding to Km; cell-free; read-out: TYK2 inhibitory activity (pIC50) (converted)
Sequence of TYK2 (P29597 whole entry): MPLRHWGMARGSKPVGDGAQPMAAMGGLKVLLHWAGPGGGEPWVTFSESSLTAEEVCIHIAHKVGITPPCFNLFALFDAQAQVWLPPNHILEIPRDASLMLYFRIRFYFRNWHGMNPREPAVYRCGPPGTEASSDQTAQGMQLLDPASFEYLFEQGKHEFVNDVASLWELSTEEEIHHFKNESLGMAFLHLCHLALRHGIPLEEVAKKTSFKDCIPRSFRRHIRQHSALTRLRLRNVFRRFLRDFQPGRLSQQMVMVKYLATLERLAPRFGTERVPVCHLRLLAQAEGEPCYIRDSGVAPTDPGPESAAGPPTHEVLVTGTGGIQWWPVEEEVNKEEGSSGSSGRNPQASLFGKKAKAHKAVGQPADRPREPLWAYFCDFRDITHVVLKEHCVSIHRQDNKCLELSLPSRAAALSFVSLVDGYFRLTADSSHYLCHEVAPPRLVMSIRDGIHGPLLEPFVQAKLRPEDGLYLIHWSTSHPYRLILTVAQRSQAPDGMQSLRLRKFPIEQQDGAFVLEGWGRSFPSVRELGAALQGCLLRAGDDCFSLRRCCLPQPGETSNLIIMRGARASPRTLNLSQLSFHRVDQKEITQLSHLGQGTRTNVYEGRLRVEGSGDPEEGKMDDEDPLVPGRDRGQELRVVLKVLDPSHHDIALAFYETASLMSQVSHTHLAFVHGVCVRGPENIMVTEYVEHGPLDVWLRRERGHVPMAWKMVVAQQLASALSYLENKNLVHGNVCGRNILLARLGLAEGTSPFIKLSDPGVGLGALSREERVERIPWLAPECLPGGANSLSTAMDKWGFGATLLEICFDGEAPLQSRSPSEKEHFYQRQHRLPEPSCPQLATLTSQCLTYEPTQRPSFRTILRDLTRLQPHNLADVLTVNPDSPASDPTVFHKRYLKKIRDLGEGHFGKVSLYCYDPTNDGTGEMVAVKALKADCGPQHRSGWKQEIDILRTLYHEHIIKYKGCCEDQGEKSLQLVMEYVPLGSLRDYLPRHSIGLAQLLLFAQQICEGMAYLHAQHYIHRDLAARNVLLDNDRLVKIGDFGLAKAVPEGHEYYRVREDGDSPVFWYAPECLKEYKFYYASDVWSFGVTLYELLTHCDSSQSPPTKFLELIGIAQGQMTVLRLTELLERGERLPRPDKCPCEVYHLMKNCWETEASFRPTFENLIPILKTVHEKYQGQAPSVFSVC
Experimental: as §1, §2, §3

JAK3 = molecular target: T1, JAK3 (Homo sapiens, UniProt P52333); assay: Biochemical potency on JAK3, TR-FRET (LANCE Ultra kinase assay); conditions: ATP corresponding to Km; cell-free; read-out: JAK3 inhibitory activity (pIC50) (converted)
T1 sequence (P52333 1-1124): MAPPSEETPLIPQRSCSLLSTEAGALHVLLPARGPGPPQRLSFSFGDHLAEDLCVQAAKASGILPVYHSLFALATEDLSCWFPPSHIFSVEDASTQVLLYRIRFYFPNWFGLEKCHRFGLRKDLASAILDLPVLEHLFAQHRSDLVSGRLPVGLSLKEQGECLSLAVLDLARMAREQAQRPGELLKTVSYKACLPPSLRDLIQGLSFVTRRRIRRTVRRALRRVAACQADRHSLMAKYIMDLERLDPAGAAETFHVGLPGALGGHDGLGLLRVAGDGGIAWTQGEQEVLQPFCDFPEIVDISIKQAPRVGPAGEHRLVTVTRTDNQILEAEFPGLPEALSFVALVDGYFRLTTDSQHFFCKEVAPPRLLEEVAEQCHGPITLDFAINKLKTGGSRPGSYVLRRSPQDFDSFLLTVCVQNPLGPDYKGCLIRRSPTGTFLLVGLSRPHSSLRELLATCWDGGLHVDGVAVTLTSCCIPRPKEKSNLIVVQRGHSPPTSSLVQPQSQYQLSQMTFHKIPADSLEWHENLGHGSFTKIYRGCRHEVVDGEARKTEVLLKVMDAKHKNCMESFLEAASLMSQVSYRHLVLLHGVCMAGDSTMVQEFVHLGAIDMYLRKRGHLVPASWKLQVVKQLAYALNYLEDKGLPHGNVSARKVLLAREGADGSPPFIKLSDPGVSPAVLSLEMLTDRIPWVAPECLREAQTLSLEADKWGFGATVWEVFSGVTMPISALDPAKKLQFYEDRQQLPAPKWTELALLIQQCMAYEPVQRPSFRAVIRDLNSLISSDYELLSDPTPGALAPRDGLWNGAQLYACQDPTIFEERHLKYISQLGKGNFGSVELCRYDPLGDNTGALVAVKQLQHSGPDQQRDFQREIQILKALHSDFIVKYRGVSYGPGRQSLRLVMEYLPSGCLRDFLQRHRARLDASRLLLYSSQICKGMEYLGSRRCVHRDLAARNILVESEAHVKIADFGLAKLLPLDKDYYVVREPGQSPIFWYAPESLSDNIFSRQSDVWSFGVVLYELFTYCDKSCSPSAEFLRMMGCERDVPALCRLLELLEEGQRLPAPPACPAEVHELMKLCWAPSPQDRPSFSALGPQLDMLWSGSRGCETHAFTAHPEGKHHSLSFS
Experimental: as §1, §2, §3

Row | Structure (SMILES) | IC50 [1] [nM] | Fold difference parent vs predicted acid metabolite [1] | IC50 (JAK1) [nM] | IC50 (JAK2) [nM] | IC50 (TYK2) [nM] | IC50 (JAK3) [nM]
1 | CCOC(=O)C1CCN(CCNC(=O)c2nn(-c3cc4c(cc3OC)NCCO4)c3cc(-c4cnn5cccnc45)ncc23)CC1 [Example 9, ethyl 1-(2-(1-(6-methoxy-3,4-dihydro-2H-benzo[b][1,4]oxazin-7-yl)-6-(pyrazolo[1,5-a]pyrimidin-3-yl)-1H-pyrazolo[4,3-c]pyridine-3-carboxamido)ethyl)piperidine-4-carboxylate] | ≤ 5.01 | kkkk (ratio≥200) | ≤ 5.01 | ≤ 5.01 | 5.01 to 50.1 | ≤ 5.01
2 | CCC(C)OC(=O)C1CCN(CCNC(=O)c2nn(-c3cc4c(cc3OC)NCCO4)c3cc(-c4cnn5cccnc45)ncc23)CC1 (stereo not drawn) [Example 10, sec-butyl 1-(2-(1-(6-methoxy-3,4-dihydro-2H-benzo[b][1,4]oxazin-7-yl)-6-(pyrazolo[1,5-a]pyrimidin-3-yl)-1H-pyrazolo[4,3-c]pyridine-3-carboxamido)ethyl)piperidine-4-carboxylate] | ≤ 5.01 | kkkk (ratio≥200) | ≤ 5.01 | ≤ 5.01 | 5.01 to 50.1 | ≤ 5.01
3 | COc1cc2c(cc1-n1nc(C(=O)NCCN3CCC(C(=O)OC4CC4)CC3)c3cnc(-c4cnn5cccnc45)cc31)OCCN2 [Example 11, cyclopropyl 1-(2-(1-(6-methoxy-3,4-dihydro-2H-benzo[b][1,4]oxazin-7-yl)-6-(pyrazolo[1,5-a]pyrimidin-3-yl)-1H-pyrazolo[4,3-c]pyridine-3-carboxamido)ethyl)piperidine-4-carboxylate] | ≤ 5.01 | kkkk (ratio≥200) | ≤ 5.01 | ≤ 5.01 | 5.01 to 50.1 | ≤ 5.01
4 | COc1cc2c(cc1-n1nc(C(=O)NCCN3CCC(C(=O)OC4CCCC4)CC3)c3cnc(-c4cnn5cccnc45)cc31)OCCN2 [Example 12, cyclopentyl 1-(2-(1-(6-methoxy-3,4-dihydro-2H-benzo[b][1,4]oxazin-7-yl)-6-(pyrazolo[1,5-a]pyrimidin-3-yl)-1H-pyrazolo[4,3-c]pyridine-3-carboxamido)ethyl)piperidine-4-carboxylate] | ≤ 5.01 | kkkk (ratio≥200) | ≤ 5.01 | ≤ 5.01 | 5.01 to 50.1 | ≤ 5.01
5 | COc1cc2c(cc1-n1nc(C(=O)NCCN3CCC(C(=O)OCC(F)(F)F)CC3)c3cnc(-c4cnn5cccnc45)cc31)OCCN2 [Example 13, 2,2,2-trifluoroethyl 1-(2-(1-(6-methoxy-3,4-dihydro-2H-benzo[b][1,4]oxazin-7-yl)-6-(pyrazolo[1,5-a]pyrimidin-3-yl)-1H-pyrazolo[4,3-c]pyridine-3-carboxamido)ethyl)piperidine-4-carboxylate] | ≤ 5.01 | kkkk (ratio≥200) | ≤ 5.01 | ≤ 5.01 | 5.01 to 50.1 | ≤ 5.01
6 | COc1cc2c(cc1-n1nc(C(=O)NCCN3CCC(C(=O)OCC(C)(C)O)CC3)c3cnc(-c4cnn5cccnc45)cc31)OCCN2 [Example 14, 2-hydroxy-2-methylpropyl 1-(2-(1-(6-methoxy-3,4-dihydro-2H-benzo[b][1,4]oxazin-7-yl)-6-(pyrazolo[1,5-a]pyrimidin-3-yl)-1H-pyrazolo[4,3-c]pyridine-3-carboxamido)ethyl)piperidine-4-carboxylate] | ≤ 5.01 | kkkk (ratio≥200) | ≤ 5.01 | ≤ 5.01 | 5.01 to 50.1 | ≤ 5.01
7 | COc1cc2c(cc1-n1nc(C(=O)NCCN3CCC(C(=O)OCC(C)(C)CO)CC3)c3cnc(-c4cnn5cccnc45)cc31)OCCN2 [Example 15, 3-hydroxy-2,2-dimethylpropyl 1-(2-(1-(6-methoxy-3,4-dihydro-2H-benzo[b][1,4]oxazin-7-yl)-6-(pyrazolo[1,5-a]pyrimidin-3-yl)-1H-pyrazolo[4,3-c]pyridine-3-carboxamido)ethyl)piperidine-4-carboxylate] | ≤ 5.01 | kkkk (ratio≥200) | ≤ 5.01 | ≤ 5.01 | 5.01 to 50.1 | ≤ 5.01
8 | COCCOC(=O)C1CCN(CCNC(=O)c2nn(-c3cc4c(cc3OC)NCCO4)c3cc(-c4cnn5cccnc45)ncc23)CC1 [Example 16, 2-methoxyethyl 1-(2-(1-(6-methoxy-3,4-dihydro-2H-benzo[b][1,4]oxazin-7-yl)-6-(pyrazolo[1,5-a]pyrimidin-3-yl)-1H-pyrazolo[4,3-c]pyridine-3-carboxamido)ethyl)piperidine-4-carboxylate] | ≤ 5.01 | kkkk (ratio≥200) | ≤ 5.01 | ≤ 5.01 | 5.01 to 50.1 | ≤ 5.01
9 | COc1cc2c(cc1-n1nc(C(=O)NCCN3CCC(C(=O)OC4CCOCC4)CC3)c3cnc(-c4cnn5cccnc45)cc31)OCCN2 [Example 17, tetrahydro-2H-pyran-4-yl 1-(2-(1-(6-methoxy-3,4-dihydro-2H-benzo[b][1,4]oxazin-7-yl)-6-(pyrazolo[1,5-a]pyrimidin-3-yl)-1H-pyrazolo[4,3-c]pyridine-3-carboxamido)ethyl)piperidine-4-carboxylate] | ≤ 5.01 | kkkk (ratio≥200) | ≤ 5.01 | ≤ 5.01 | 5.01 to 50.1 | ≤ 5.01
